Format in all cases: functional
Test [1] concerns Bacillus subtilis. The experiment in a line: Growth inhibition of Bacillus subtilis at 20 ug/ml.
For test [2], the system named is Bacillus subtilis. In words: Growth inhibition of Bacillus subtilis at 50 ug/ml.
The subject of test [3] is Bacillus subtilis. The experiment in a line: Growth inhibition of Bacillus subtilis at 91 ug/ml.
The subject of test [4] is Pseudomonas fluorescens. The experiment in a line: Growth inhibition of Pseudomonas fluorescens at 50 ug/ml.
Test [5] deals with Pseudomonas fluorescens. In words: Growth inhibition of Pseudomonas fluorescens at 91 ug/ml.
Test [6] relates to Bacillus subtilis. The experiment in a line: Growth inhibition of Bacillus subtilis at 5 ug/ml. To be noted: for inhibition at 5 µg/mL: Bacillus subtilis.
Test [7] deals with Bacillus subtilis. The experiment in a line: Growth inhibition of Bacillus subtilis at 45 ug/ml.
Test [8] deals with KB. In words: Plating efficiency of human KB cells at 25 ug/ml.
The test system of test [9] is KB. In words: Growth inhibition of human KB cells at 25 ug/ml. Conditions: read-out: GI.
The subject of test [10] is Bacillus subtilis. The experiment in a line: Growth inhibition of Bacillus subtilis at 90 ug/ml.
Test [11] has as its system Pseudomonas fluorescens. The experiment in a line: Growth inhibition of Pseudomonas fluorescens at 90 ug/ml.
The subject of test [12] is Pseudomonas fluorescens. The experiment in a line: Growth inhibition of Pseudomonas fluorescens at 5 ug/ml.
Test [13] has as its system Bacillus subtilis. In words: Growth inhibition of Bacillus subtilis at 10 ug/ml.
For test [14], the system named is KB. In words: Growth inhibition of human KB cells at 12.5 ug/ml. Conditions: read-out: GI.
In test [15] the test system is KB. In words: Plating efficiency of human KB cells at 12.5 ug/ml.
Test [16] deals with KB. In words: Plating efficiency of human KB cells at 150 ug/ml.
The subject of test [17] is KB. In words: Growth inhibition of human KB cells at 150 ug/ml. To be noted: read-out: GI.
The subject of test [18] is KB. In words: Growth inhibition of human KB cells at 50 ug/ml. Conditions: read-out: GI.
For test [19], the system named is KB. The experiment in a line: Plating efficiency of human KB cells at 50 ug/ml.
Test [20] deals with Pseudomonas fluorescens. The experiment in a line: Growth inhibition of Pseudomonas fluorescens at 45 ug/ml.

A word on the inhibition: it is the drop in the measured response relative to a control, in per cent. Read a low inhibition as a weak effect. As for `COc1ccc2c(c1)CCc1cnn(CCN(CCCl)CCCl)c1-2`, in [1], the inhibition at 20 µg/mL turned out to be 100%.

`CCCCCCOc1ccc2c(c1)CCc1cnn([C@@H]3O[C@H](COC(C)=O)[C@@H](OC(C)=O)[C@H](OC(C)=O)[C@H]3OC(C)=O)c1-2`: the inhibition at 50 µg/mL in test [2] worked out at 100%; in test [4] it was 0%. Also, the inhibition at 91 µg/mL was 100% in [3] and 0% in [5].

Regarding `CCCCCCOc1ccc2c(c1)CCc1cnn(CCN(CCCl)CCCl)c1-2`, in test [6], the inhibition at 5 µg/mL is 100%.

`COc1ccc2c(c1)CCc1cnn(CCSCCCl)c1-2` returned an inhibition at 45 µg/mL in test [7] of 100%.

In test [3], `CN(C)CCOc1ccc2c(c1)CCc1cn[nH]c1-2` yielded an inhibition at 91 µg/mL of 0%.

Take `CCCCCCOc1ccc2c(c1)CCc1sc(N)nc1-2`: in [8], the Activity is reported as 0%. Besides, the inhibition of growth at 25 µg/mL in test [9] is 100%. In test [6], the “inhibition (INH)” value is 100%.

Regarding `COc1ccc2c(c1)CCc1sc(N)nc1-2.Cl`, the inhibition at 90 µg/mL was 100% in [10] and 25% in test [11]. In [12], this molecule came in with an inhibition at 5 µg/mL of 0%. Besides, the “inhibition (INH)” value in test [6] stood at 47%.

`C[n+]1cccc2c1CCc1cn[nH]c1-2` gave an inhibition at 91 µg/mL in test [3] of 50%.

For `CCCCCCCCCCCCCCCCOc1ccc2c(c1)CCc1cn[nH]c1-2`, the inhibition at 91 µg/mL in test [3] worked out at 0%.

As for `OCCOc1ccc2c(c1)CCc1cn[nH]c1-2`, in test [3], the inhibition at 91 µg/mL was determined as 0%.

Molecule `COc1ccc2c(c1)CC[C@]1(C)C(=O)NN=C21` had an inhibition at 91 µg/mL in [3] of 0%.

Molecule `COc1ccc2c(c1)CCc1c[nH]nc1-2` registered an inhibition at 91 µg/mL in [3] of 0%.

Take `c1cnc2c(c1)-c1[nH]ncc1CC2`: testing at 90 µg/mL in [11] gave an inhibition of 0%. The molecule also showed an inhibition at 10 µg/mL in test [13] of 100%.

Turning to `COc1ccc2c(c1)CCc1sc(N)nc1-2`, the inhibition at 5 µg/mL in test [6] was 40%.

On to `COc1ccc2c(c1)CCc1cnoc1-2`, for which the results for the Activity in test [8], in test [15] and in [16] were 67%, 100% and 0%, respectively. Further, the inhibition of growth at 25 µg/mL in test [9] was found to be 33%. Besides, the inhibition at 91 µg/mL in test [3] stood at 100%; in test [5], 0%. Also, the inhibition of growth at 12.5 µg/mL in test [14] stood at 0%. For the same molecule, the inhibition of growth at 150 µg/mL in test [17] worked out at 100%.

In test [3], `COc1ccc2c3c(ccc2c1)-c1[nH]ncc1CC3` showed an inhibition at 91 µg/mL of 7.8%. This molecule gave an inhibition at 90 µg/mL in test [11] of 48%.

On to `CN(C)CCOc1ccc2c3c(ccc2c1)-c1[nH]ncc1CC3`, for which the inhibition at 91 µg/mL amounted to 100% in test [3] and 0% in test [5].

In the case of `COc1ccc2c(c1)CCc1cnn([C@@H]3O[C@H](COC(C)=O)[C@@H](OC(C)=O)[C@H](OC(C)=O)[C@H]3OC(C)=O)c1-2`, the inhibition at 91 µg/mL in [3] and in test [5] was 100% in each case. Moreover, the inhibition of growth at 50 µg/mL in [18] came to 100%. The molecule further came in with an inhibition at 5 µg/mL in test [6] of 100%. The same molecule returned an Activity in test [19] of 0%.

`CCCCCCOc1ccc2c(c1)CCc1cnoc1-2`: the inhibition at 45 µg/mL in test [20] and in test [7] was 0% throughout. This molecule also registered an inhibition at 91 µg/mL in test [3] of 100%.

In the case of `CCCCCCOc1ccc2c(c1)CC[C@]1(C)C(=O)NN=C21`, the inhibition at 91 µg/mL in [3] and in test [5] was 0% each time.

For `CN(C)CCOc1ccc2c3c(ccc2c1)C(=O)CCC3`, the inhibition at 91 µg/mL in [3] was 100%.

The molecule `CCCCCCOc1ccc2c3c(ccc2c1)-c1[nH]ncc1CC3` yielded an inhibition at 91 µg/mL in test [3] of 100%.

`CCCCCCOc1ccc2c(c1)CCc1sc(N)nc1-2.Cl`: the inhibition at 90 µg/mL in test [10] turned out to be 60%; in [11], 25%. The same molecule yielded an inhibition at 5 µg/mL in test [12] of 11%. Moreover, the “inhibition (INH)” value in test [6] is given as 12%.

For the molecule `CCCCCCOc1ccc2c(c1)CCc1cn[nH]c1-2`, the inhibition at 45 µg/mL worked out at 0% in test [20] and 100% in [7].

The record behind these values is ChEMBL document CHEMBL3244137, “Synthesis and antimicrobial activity of azasteroid-type compounds and related systems. Effect of hydrophilic and lipophilic groups on activity” (1977).
